According to US7323469B2, “7H-pyrrolo[2,3-d]pyrimidine derivatives” (Novartis AG, priority 2001, dated 2008):

What was measured:
ErbB-2 (HER-2) = ErbB-2 (HER-2) (Homo sapiens, UniProt P04626); assay: Inhibition of ErbB-2 tyrosine kinase activity; assay type: biochemical
Method: The inhibitory activity (IC50) is approximately in the range of 0.001 to 0.5 μM. The inhibition of ErbB-2 tyrosine kinase (HER-2) can be determined, for example, analogously to the method used for EGF-R protein tyrosine kinase [see C. House et al., Europ. J. Biochem. 140, 363-367 (1984)]. The ErbB-2 kinase can be isolated, and its activity determined, by means of protocols known per se, for example in accordance with T. Akiyama et al., Science 232, 1644 (1986).
(§1) Inhibition of the Tyrosine Kinase Activity of EGF-R (HER-1), ErbB-2 (HER-2) and VEGF Receptor (KDR)
(§2) The inhibition tests are carried out as described above.

EGF-R (HER-1) = target: T1, EGF-R (HER-1) (Homo sapiens, UniProt P00533); assay: Inhibition of EGF-R tyrosine kinase activity (recombinant intracellular domain, EGF-R ICD); assay type: biochemical
T1 construct: using the recombinant intracellular domain of the EGF-receptor [EGF-R ICD
Method: J. Biochem. 207, 265-275 (1992)].
as §1, §2

VEGF Receptor (KDR) = VEGF Receptor (KDR) (Homo sapiens, UniProt P35968); assay: Inhibition of KDR tyrosine kinase activity; assay type: biochemical
Method: The compounds of the present invention are therefore very effective dual inhibitors of EGF- and VEGF-receptor family members. For inhibition of KDR and Flt-1 and inhibition of growth factor-induced proliferation of HUVECS see J. Wood et al., Cancer Res. 60, 2178-2189 (2000). The compounds of formula I inhibit e.g. the KDR tyrosine kinase activity with an IC50 of from about 1 nM to about 1 μM, especially from about 5 nM to about 0.5 μM.
as §1, §2

VEGF Receptor (KDR), sequence (P35968 20-1356): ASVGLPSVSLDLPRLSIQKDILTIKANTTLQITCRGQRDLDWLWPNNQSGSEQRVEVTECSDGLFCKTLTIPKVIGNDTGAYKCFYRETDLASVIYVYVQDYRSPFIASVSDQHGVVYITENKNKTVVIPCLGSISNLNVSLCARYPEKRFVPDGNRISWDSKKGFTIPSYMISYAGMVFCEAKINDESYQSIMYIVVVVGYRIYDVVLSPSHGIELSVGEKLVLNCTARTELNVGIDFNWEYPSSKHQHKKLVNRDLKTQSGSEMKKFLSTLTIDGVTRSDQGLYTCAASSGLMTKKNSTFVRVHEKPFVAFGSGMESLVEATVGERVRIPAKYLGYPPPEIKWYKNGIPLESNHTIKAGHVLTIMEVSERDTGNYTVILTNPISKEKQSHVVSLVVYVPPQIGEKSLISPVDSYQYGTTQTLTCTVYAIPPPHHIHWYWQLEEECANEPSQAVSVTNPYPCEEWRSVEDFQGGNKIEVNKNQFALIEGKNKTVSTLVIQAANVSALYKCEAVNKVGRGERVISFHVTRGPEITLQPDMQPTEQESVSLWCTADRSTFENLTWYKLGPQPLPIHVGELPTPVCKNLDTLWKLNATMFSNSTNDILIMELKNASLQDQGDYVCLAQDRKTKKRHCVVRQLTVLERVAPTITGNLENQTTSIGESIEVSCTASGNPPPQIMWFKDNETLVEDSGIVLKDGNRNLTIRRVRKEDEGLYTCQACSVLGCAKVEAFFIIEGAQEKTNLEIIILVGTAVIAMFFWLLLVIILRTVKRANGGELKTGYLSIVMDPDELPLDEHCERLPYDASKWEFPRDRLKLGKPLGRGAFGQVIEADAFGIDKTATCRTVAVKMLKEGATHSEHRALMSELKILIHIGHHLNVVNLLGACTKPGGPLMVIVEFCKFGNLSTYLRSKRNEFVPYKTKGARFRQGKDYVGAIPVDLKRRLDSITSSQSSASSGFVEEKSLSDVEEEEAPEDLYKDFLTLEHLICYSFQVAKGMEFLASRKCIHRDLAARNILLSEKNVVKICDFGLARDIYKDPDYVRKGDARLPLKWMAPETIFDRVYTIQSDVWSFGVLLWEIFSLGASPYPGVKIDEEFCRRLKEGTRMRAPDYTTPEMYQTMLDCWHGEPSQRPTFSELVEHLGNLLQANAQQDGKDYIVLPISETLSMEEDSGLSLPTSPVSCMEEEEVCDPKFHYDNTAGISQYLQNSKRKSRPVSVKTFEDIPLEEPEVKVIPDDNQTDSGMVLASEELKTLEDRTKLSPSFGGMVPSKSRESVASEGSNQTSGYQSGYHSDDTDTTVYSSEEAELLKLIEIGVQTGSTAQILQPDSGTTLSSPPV
ErbB-2 (HER-2), sequence (P04626 23-1255): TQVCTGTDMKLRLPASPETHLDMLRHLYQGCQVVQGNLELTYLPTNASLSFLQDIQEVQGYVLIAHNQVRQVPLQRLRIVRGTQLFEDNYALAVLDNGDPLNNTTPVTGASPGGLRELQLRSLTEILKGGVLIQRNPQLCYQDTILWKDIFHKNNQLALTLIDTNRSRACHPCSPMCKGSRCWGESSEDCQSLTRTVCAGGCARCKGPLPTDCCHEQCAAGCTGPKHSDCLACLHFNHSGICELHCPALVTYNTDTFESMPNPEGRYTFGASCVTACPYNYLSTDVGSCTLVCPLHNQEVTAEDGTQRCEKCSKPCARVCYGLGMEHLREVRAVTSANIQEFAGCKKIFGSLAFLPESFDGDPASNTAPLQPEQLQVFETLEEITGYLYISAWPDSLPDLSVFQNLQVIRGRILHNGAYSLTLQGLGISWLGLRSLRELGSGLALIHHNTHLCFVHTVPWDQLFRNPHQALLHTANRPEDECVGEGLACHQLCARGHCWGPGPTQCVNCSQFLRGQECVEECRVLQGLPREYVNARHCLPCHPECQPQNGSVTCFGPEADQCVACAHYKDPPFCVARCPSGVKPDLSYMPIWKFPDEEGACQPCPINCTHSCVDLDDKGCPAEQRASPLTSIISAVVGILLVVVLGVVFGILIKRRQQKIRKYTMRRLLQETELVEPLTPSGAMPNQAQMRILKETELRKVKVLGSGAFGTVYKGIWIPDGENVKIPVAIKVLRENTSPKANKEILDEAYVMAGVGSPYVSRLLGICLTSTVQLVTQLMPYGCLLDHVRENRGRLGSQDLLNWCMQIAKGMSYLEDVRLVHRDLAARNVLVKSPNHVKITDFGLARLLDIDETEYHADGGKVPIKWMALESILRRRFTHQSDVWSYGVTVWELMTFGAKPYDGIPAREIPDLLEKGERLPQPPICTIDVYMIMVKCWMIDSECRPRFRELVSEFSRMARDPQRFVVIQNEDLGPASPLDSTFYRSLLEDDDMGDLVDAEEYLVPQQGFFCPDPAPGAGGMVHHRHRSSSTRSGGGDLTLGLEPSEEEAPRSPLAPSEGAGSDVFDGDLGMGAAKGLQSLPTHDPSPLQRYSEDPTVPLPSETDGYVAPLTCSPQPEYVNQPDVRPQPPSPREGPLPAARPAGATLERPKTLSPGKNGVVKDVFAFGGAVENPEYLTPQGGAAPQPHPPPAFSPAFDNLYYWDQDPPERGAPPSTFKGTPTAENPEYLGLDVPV
T1 sequence (P00533 669-1210 limits assumed): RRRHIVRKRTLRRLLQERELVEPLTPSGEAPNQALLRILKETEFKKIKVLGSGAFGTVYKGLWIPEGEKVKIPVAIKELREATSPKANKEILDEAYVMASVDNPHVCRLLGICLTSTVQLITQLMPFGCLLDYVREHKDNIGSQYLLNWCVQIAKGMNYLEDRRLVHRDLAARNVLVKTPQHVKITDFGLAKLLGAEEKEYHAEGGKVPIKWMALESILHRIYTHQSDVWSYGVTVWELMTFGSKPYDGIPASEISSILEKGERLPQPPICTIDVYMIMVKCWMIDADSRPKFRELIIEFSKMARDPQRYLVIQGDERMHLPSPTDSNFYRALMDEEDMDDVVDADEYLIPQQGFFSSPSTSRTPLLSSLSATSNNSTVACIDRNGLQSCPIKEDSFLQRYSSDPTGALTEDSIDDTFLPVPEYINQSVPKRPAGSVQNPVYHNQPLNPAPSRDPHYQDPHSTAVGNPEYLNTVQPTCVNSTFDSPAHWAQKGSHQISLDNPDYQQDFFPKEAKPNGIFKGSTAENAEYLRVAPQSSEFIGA

SMILES	IC50 (ErbB-2 (HER-2)) [nM]	IC50 (EGF-R (HER-1)) [nM]	IC50 (VEGF Receptor (KDR)) [nM]	melting point [°C]
Cc1cccc(CNc2ncnc3[nH]c(-c4ccc(CN(C)C)cc4)cc23)c1 [107f^]	45	2.5	19	–
CCN1CCN(Cc2ccc(-c3cc4c(Nc5ccc(F)c(Cl)c5)ncnc4[nH]3)cc2)CC1 [Example 3, (3-Chloro-4-fluoro-phenyl)-{6-[4-(4-ethyl-piperazin-1-ylmethyl)-phenyl]-7H-pyrrolo[2,3-d]pyrimidin-4-yl}-amine]	8	3.1	10.7	266 to 268
Fc1ccc(Nc2ncnc3[nH]c(-c4ccc(CN5CCCC5)cc4)cc23)cc1Cl [Example 4, (3-Chloro-4-fluoro-phenyl)-[6-(4-pyrrolidin-1-ylmethyl-phenyl)-7H-pyrrolo[2,3-d]pyrimidin-4-yl]-amine]	7.2	3.1	9.3	268 to 270
CN1CCN(Cc2ccc(-c3cc4c(Nc5ccc(F)c(Cl)c5)ncnc4[nH]3)cc2)CC1 [Example 5, (3-Chloro-4-fluoro-phenyl)-{6-[4-(4-methyl-piperazin-1-ylmethyl)-phenyl]-7H-pyrrolo[2,3-d]pyrimidin-4-yl}-amine]	6.7	3.1	6	264 to 266
Fc1ccc(Nc2ncnc3[nH]c(-c4ccc(CN5CCCCC5)cc4)cc23)cc1Cl [Example 6, (3-Chloro-4-fluoro-phenyl)-[6-(4-piperidin-1-ylmethyl-phenyl)-7H-pyrrolo[2,3-d]pyrimidin-4-yl]-amine]	5	7	12.7	267 to 269
Fc1ccc(Nc2ncnc3[nH]c(-c4ccc(CN5CCOCC5)cc4)cc23)cc1Cl [Example 7, (3-Chloro-4-fluoro-phenyl)-[6-(4-morpholin-4-ylmethyl-phenyl)-7H-pyrrolo[2,3-d]pyrimidin-4-yl]-amine]	11	4	58	298 to 300
Fc1ccc(Nc2ncnc3[nH]c(-c4ccc(CNC5CCOCC5)cc4)cc23)cc1Cl [Example 8a, (3-Chloro-4-fluoro-phenyl)-(6-{4-[(tetrahydro-pyran-4-ylamino)-methyl]-phenyl}-7H-pyrrolo[2,3-d]pyrimidin-4-yl)-amine]	9.4	2.4	17	288 to 290
C[C@@H](Nc1ncnc2[nH]c(-c3ccc(CN4CCCC4)cc3)cc12)c1ccccc1 [Example 12, ((R)-1-Phenyl-ethyl)-[6-(4-pyrrolidin-1-ylmethyl-phenyl)-7H-pyrrolo[2,3-d]pyrimidin-4-yl]-amine]	5	4.7	139	254 to 256
C[C@@H](Nc1ncnc2[nH]c(-c3ccc(CN(C)C)cc3)cc12)c1ccccc1 [Example 13, [6-(4-Dimethylamino-methyl-phenyl)-7H-pyrrolo[2,3-d]pyrimidin-4-yl]-((R)-1-phenyl-ethyl)-amine]	5	6	88	–
C[C@@H](Nc1ncnc2[nH]c(-c3ccc(CN4CCCCC4)cc3)cc12)c1ccccc1 [Example 14, ((R)-1-Phenyl-ethyl)-[6-(4-piperidin-1-ylmethyl-phenyl)-7H-pyrrolo[2,3-d]pyrimidin-4-yl]-amine]	8.5	6.3	92.7	246 to 248
C[C@@H](Nc1ncnc2[nH]c(-c3ccc(CN4CCOCC4)cc3)cc12)c1ccccc1 [Example 15, [6-(4-Morpholin-4-ylmethyl-phenyl)-7H-pyrrolo[2,3-d]pyrimidin-4-yl]-((R)-1-phenyl-ethyl)-amine]	6.5	5	49.3	263 to 265
CN(C)Cc1ccc(-c2cc3c(Nc4ccc(=O)[nH]c4)ncnc3[nH]2)cc1 [Example 116, 5-[6-(4-Dimethylaminomethyl-phenyl)-7H-pyrrolo[2,3-d]pyrimidin-4-ylamino]-1H-pyridin-2-one]	15.5	39	15.5	–
